Holding throughout (assay type): cell-based
For assay [1], the system named is NCI-H460 (non-small cell lung) cancer cell line. The experiment in a line: In vitro cytotoxicity (GI50), Sulforhodamine B staining, NCI-H460. The conditions noted are these: Homo sapiens, read-out: Drug concentration that produces 50% cell growth inhibition (GI50), H460 (NSCLC). On the procedure:
(§1) In this example, the in vitro cytotoxicity, as measured by GI50 (50% of growth inhibition) values, was determined for representative lipophilic di(anticancer drug) compounds of the invention. The GI50 values of sebacate bis(7-ethylcamptothecin-10-yl)ester, sebacate bis(camptothecin-20-yl)ester, sebacate bis(paclitaxel-2′-yl)ester, and sebacate bis(docetaxel-2′-yl)ester, were measured in the following cancer cell lines: NCI-H460 (non-small cell lung), MDA-MB-231 (breast), […] (colon), and SKOV-3 (ovarian).
(§2) The study was performed using a solution of the lipophilic di(anticancer drug) compounds in DMSO (1 mM) diluted in the corresponding cell media. The cells were in contact with varying concentrations of the drug for a period of 48 hours. At the end of 48 hours, staining with Sulforhodamine B was performed to determine the number of viable cells and calculate the degree of cellular growth inhibition as compared to a control group.
A general note: In SRB staining, fixed cells bind dye roughly in proportion to their protein.

Assay [2] deals with MDA-MB-231 (breast) cancer cell line. Briefly: In vitro cytotoxicity (GI50), Sulforhodamine B staining, MDA-MB-231. To be noted: Homo sapiens, read-out: Drug concentration that produces 50% cell growth inhibition (GI50), MDA-MB-231 (BREAST). Here is the method: as §1, §2
For assay [3], the system named is HCT-116 (colon) cancer cell line. The experiment in a line: In vitro cytotoxicity (GI50), Sulforhodamine B staining, HCT-116. The conditions noted are these: Homo sapiens, read-out: Drug concentration that produces 50% cell growth inhibition (GI50), HCT-116 (COLON). On the procedure: as §1, §2
Assay [4] has as its system SKOV-3 (ovarian) cancer cell line. Briefly: In vitro cytotoxicity (GI50), Sulforhodamine B staining, SKOV-3. To be noted: Homo sapiens, read-out: Drug concentration that produces 50% cell growth inhibition (GI50), SKOV-3 (OVARIAN). Here is the method:
as §1, §2

Setting [5] is: NCI-H460, H460 (NSCLC) cells, 48 hours contact, Sulforhodamine B.
[6] abbreviates: MDA-MB-231 (breast) cells, 48 hours contact, Sulforhodamine B.
The mark [7] stands for this setting: HCT-116 (colon) cells, 48 hours contact, Sulforhodamine B.
Where [8] appears, read: SK-OV-3, SKOV-3 (ovarian) cells, 48 hours contact, Sulforhodamine B.

Like-named read-outs stand apart in the source and are kept apart here.

With `CCc1c2c(nc3ccc(OC(=O)CCCCCCCCC(=O)Oc4ccc5nc6c(c(CC)c5c4)Cn4c-6cc5c(c4=O)COC(=O)[C@]5(O)CC)cc13)-c1cc3c(c(=O)n1C2)COC(=O)[C@]3(O)CC` [sebacate bis(7-ethylcamptothecin-10-yl), decanedioic acid bis[(4S)-4,11-diethyl-3,4,12,14-tetrahydro-4-hydroxy-3,14-dioxo-1H-pyrano[3′,4′:6,7]indolizino[1,2-b]quinolin-9-yl]ester], the GI50 amounted to 3.03 nM in assay [1] (NCI-H460, 48 h); 303 nM in assay [2] (MDA-MB-231, 48 h); 4.58 nM in assay [3] (HCT-116, 48 h); 8.53 nM in assay [4] (SK-OV-3, 48 h).

For the molecule `CC[C@@]1(OC(=O)CCCCCCCCC(=O)O[C@]2(CC)C(=O)OCc3c2cc2n(c3=O)Cc3cc4ccccc4nc3-2)C(=O)OCc2c1cc1n(c2=O)Cc2cc3ccccc3nc2-1` [sebacate bis(camptothecin-20-yl)ester, decanedioic acid bis[(4S)-4-ethyl-3,4,12,14-tetrahydro-3,14-dioxo-1H-pyrano[3′,4′:6,7]indolizino[1,2-b]quinolin-4-yl]ester], the GI50 in assay [1] (setting [5]) was 3150 nM; in assay [2] (setting [6]), 9250 nM; in assay [3] (setting [7]) it was 849 nM; in assay [4] (setting [8]) it was 8540 nM.

`CC(=O)O[C@@]12CO[C@@H]1C[C@H](O)[C@@]1(C)C(=O)[C@H](O)C3=C(C)[C@@H](OC(=O)[C@H](OC(=O)CCCCCCCCC(=O)O[C@@H](C(=O)O[C@H]4C[C@@]5(O)[C@@H](OC(=O)c6ccccc6)[C@@H]6[C@]7(OC(C)=O)CO[C@@H]7C[C@H](O)[C@@]6(C)C(=O)[C@H](O)C(=C4C)C5(C)C)[C@@H](NC(=O)OC(C)(C)C)c4ccccc4)[C@@H](NC(=O)OC(C)(C)C)c4ccccc4)C[C@@](O)([C@@H](OC(=O)c4ccccc4)[C@H]21)C3(C)C` [sebacate bis(docetaxel-2′-yl)ester, decanedioic acid bis[(1R,2S)-1-[[[(2aR,4S,4aS,6R,9S,11S,12S,12aR,12bS)-12b-(acetyloxy)-12-(benzoyloxy)-2a,3,4,4a,5,6,9,10,11,12,12a,12b-dodecahydro-4,6,11-trihydroxy-4a,8,13,13-tetramethyl-5-oxo-7,11-methano-1H-cyclodeca[3,4]benz[1,2-b]oxet-9-yl]oxy]carbonyl]-2-[[(1,1-dimethylethoxy)carbonyl]amino]-2-phenylethyl]ester]: the GI50 in assay [1] (setting [5]) worked out at 16.7 nM; in assay [2] (setting [6]) it was 111 nM; in assay [3] (setting [7]), 20.9 nM; in assay [4] (setting [8]) it was 135 nM.

As for `CC(=O)O[C@H]1C(=O)[C@@]2(C)[C@H]([C@H](OC(=O)c3ccccc3)[C@]3(O)C[C@H](OC(=O)[C@H](OC(=O)CCCCCCCCC(=O)O[C@@H](C(=O)O[C@H]4C[C@@]5(O)[C@@H](OC(=O)c6ccccc6)[C@@H]6[C@]7(OC(C)=O)CO[C@@H]7C[C@H](O)[C@@]6(C)C(=O)[C@H](OC(C)=O)C(=C4C)C5(C)C)[C@@H](NC(=O)c4ccccc4)c4ccccc4)[C@@H](NC(=O)c4ccccc4)c4ccccc4)C(C)=C1C3(C)C)[C@]1(OC(C)=O)CO[C@@H]1C[C@@H]2O` [sebacate bis(paclitaxel-2′-yl)ester, decanedioic acid bis[(1R,2S)-2-(benzoylamino)-1-[[[(2aR,4S,4aS,6R,9S,11S,12S,12aR,12bS)-6,12b-bis(acetyloxy)-12-(benzoyloxy)-2a,3,4,4a,5,6,9,10,11,12,12a, 12b-dodecahydro-4,11-dihydroxy-4a,8,13,13-tetramethyl-5-oxo-7,11-methano-1H-cyclodeca[3,4]benz[1,2-b]oxet-9-yl]oxy]carbonyl]-2-phenylethyl]ester], the GI50 was determined as 83.2 nM in assay [1] (NCI-H460, 48 h); 84.3 nM in assay [2] (MDA-MB-231, 48 h); 39.9 nM in assay [3] (HCT-116, 48 h); 40.2 nM in assay [4] (SK-OV-3, 48 h).
